Measurements: PMC4774972, “Activity and Predicted Nephrotoxicity of Synthetic Antibiotics Based on Polymyxin B” (Journal of Medicinal Chemistry, 2016)
Bridge positions count the residues as written; N and C are the ends. Square brackets hold non-standard residues; d marks the D form. Peptide text beside a SMILES is read from it. * marks the point of attachment. hSer = N[C@@H](CCO)C(=O)O; Octanoyl = CCCCCCCC(=O)*; Dab = NCC[C@H](N)C(=O)O

Legend:
[1] = system: panel of predominantly G-ve bacteria
HepG2 = conditions: CC50 HepG2 (µM)
[2] = system: P. aeruginosa FADDI-PA070, PmxR; conditions: MIC P. aeruginosa FADDI-PA070, PmxR (µg/mL)
[3] = system: A. baumannii CI Ptyela 100734512:2, PmxR; conditions: MIC A. baumannii CI Ptyela 100734512:2, PmxR (µg/mL)
K. pneumoniae ATCC 13883 = conditions: MIC K. pneumoniae ATCC 13883 (µg/mL)
[4] = system: S. aureus ATCC 25923, MSSA; conditions: MIC S. aureus ATCC 25923, MSSA (µg/mL)
[5] = system: K. pneumoniae CI 138-16357-20362, PmxR; conditions: MIC K. pneumoniae CI 138-16357-20362, PmxR (µg/mL)
[6] = system: K. pneumoniae CI Koprana 100650661:1, PmxR; conditions: MIC K. pneumoniae CI Koprana 100650661:1, PmxR (µg/mL)
[7] = system: P. aeruginosa PA9704, PmxR; conditions: MIC P. aeruginosa PA9704, PmxR (µg/mL)
[8] = system: K. pneumoniae CI 138-16357-20362, PmxR; assay: microbe, parasite or virus in culture; format: cell-based, Klebsiella pneumoniae; conditions: carbapenem & polymyxin resistant clinical isolate; MHB, 5 × 10^5 CFU/mL, 18 h at 37 °C
[9] = system: K. pneumoniae CI Koprana 100650661:1, PmxR; assay: microbe, parasite or virus in culture; format: cell-based, Klebsiella pneumoniae; conditions: carbapenem & polymyxin resistant clinical isolate; MHB, 5 × 10^5 CFU/mL, 18 h at 37 °C

| Structure (SMILES) | MIC for most strains [1] | CC50 (HepG2) | MIC [2] | MIC [3] | MIC (K. pneumoniae ATCC 13883) | MIC [4] | MIC [5] | MIC [6] | MIC [7] | MIC K. pneumoniae CI 138-16357-20362, PmxR [8] | MIC K. pneumoniae CI Koprana 100650661:1, PmxR [9] |
| --- | --- | --- | --- | --- | --- | --- | --- | --- | --- | --- | --- |
| CCCCCCCC(=O)N[C@@H](CCN)C(=O)N[C@H](C(=O)N[C@@H](CCN)C(=O)N[C@H]1CCNC(=O)[C@H]([C@@H](C)O)NC(=O)[C@H](CCN)NC(=O)[C@H](CCO)NC(=O)[C@H](CC(C)C)NC(=O)[C@@H](Cc2ccccc2)NC(=O)[C@H](CCN)NC1=O)[C@@H](C)O [Compound 24] (Octanoyl-[Dab]T[Dab][Dab][Dab][dF]L[hSer][Dab]T; lactam 4-C) | 1 to 8 µg/mL | > 300 µM | > 32 µg/mL | > 32 µg/mL | > 32 µg/mL | > 32 µg/mL | > 32 µg/mL | > 32 µg/mL | > 32 µg/mL | >32 µg/mL | >32 µg/mL |
| CCCCCCCC(=O)N[C@@H](CCN)C(=O)N[C@H](C(=O)N[C@@H](CCN)C(=O)N[C@H]1CCNC(=O)[C@H]([C@@H](C)O)NC(=O)[C@H](CCN)NC(=O)[C@H](CCNC(=O)[C@@H](N)CCC(=O)O)NC(=O)[C@H](CC(C)C)NC(=O)[C@@H](Cc2ccccc2)NC(=O)[C@H](CCN)NC1=O)[C@@H](C)O [Compound 23] (Octanoyl-[Dab]T[Dab][Dab][Dab][dF]L[Dab](Glu)[Dab]T; lactam 4-C) | 1 to 8 µg/mL | > 300 µM | > 32 µg/mL | > 32 µg/mL | – | > 32 µg/mL | > 32 µg/mL | > 32 µg/mL | > 32 µg/mL | >32 µg/mL | >32 µg/mL |
